For five compounds, IC50 results are on record in US9670229B2, “5-HT3 receptor antagonists” (Takeda Pharmaceutical Company Limited, priority 2012, dated 2017).

The target in this assay is 5-HT3a receptor expressed in HEK-293T cells (Homo sapiens (Human), UniProt P46098). Briefly: Inhibition of Ca flux activity of 5-HT3 in vitro assay. It is filed as cell-based. Conditions: approximate IC50; calcium flux, 5HT 216 nM, HEK-293T cells transfected with 5-HT3a. As to the method:
The 5-HT3 antagonist activity of the compounds of the invention was determined by measuring the ability of the compounds to inhibit the calcium flux activity of […] receptor expressed in HEK-293T cells. HEK-293T cells were transfected with the 5-HT3a expression construct using Xtreme Gene 9 (Roche) in 150 mm tissue culture treated plates and incubated for 24 hours at 37° C. Cells were then split and plated at a density of 60K cells/well in poly-lysine coated, black 96-well plates with clear bottoms (BD BioSciences) and incubated overnight at 37° C. Growth media was removed and cells loaded with 200 uL calcium indicator dye in HBSS containing 20 mM HEPES (Calcium 5 Assay kit, Molecular Devices) and incubated at 37° C. for 1 hour. While cells were incubating, the 10× antagonist and agonist/antagonist addition plates were made. For 10× antagonist plate: half log serial dilutions (final concentrations range from 10^−7 through 10^−10 with the bottom well a negative, no ligand control) were made from test compounds in DMSO at a 1000× concentration and then diluted to 10× in HBSS/20 mM HEPES. For addition plate: 5HT was diluted to 100× in HBSS/20 mM HEPES (final concentration in the assay-216 nM) and 15 uL was added to each well of the addition plate, 15 uL of 10× compound was also added to the addition plate, and finally 120 uL of HBSS/20 mM HEPES (for a total of 150 uL). Cells were then removed from the incubator and equilibrated to room temperature for 10 minutes, then 22.5 uL of 10× test compounds were added in triplicate to the plates and incubated at room temperature for 10 minutes (Tropisetron was used as a positive control in every assay). Test plate and addition plate were loaded into the FlexStation III (Molecular Devices), and using the fluidics, 22.5 uL compound additions were made (at t=˜17 seconds), and fluorescence was measured for 90 seconds, reading every 2.2 seconds. Data sets were analyzed as max minus min using Software Max Pro (Molecular Devices). IC50 curves were generated using non-linear regression in GraphPad Prism.
(In general: Calcium flux is commonly read through the fluorescence of an indicator in the cells.)

5-HT3a receptor expressed in HEK-293T cells, sequence (P46098 24-478): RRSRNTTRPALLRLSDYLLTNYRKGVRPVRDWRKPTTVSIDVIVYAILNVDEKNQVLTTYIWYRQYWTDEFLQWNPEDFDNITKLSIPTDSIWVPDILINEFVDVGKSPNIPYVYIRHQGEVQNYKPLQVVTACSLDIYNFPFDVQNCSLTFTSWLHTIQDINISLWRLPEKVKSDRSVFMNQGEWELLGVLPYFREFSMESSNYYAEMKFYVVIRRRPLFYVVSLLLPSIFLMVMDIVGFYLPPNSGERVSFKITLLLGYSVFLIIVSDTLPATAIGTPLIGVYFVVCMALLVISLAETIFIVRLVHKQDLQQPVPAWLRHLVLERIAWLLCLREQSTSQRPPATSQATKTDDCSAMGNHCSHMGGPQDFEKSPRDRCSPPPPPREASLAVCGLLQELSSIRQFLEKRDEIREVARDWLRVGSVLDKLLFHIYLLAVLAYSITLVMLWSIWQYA

In the case of “(1R,5S,7S)-9-methyl-3-oxa-9-azabicyclo [3.3.1]nonan-7-yl 1-(1-(2-fluoroethyl)- 1H-pyrazol-4-yl)-1H-indole-3-carboxylate, 2,2,2-trifluoroacetic acid salt [Compound 18]”, the 50% inhibitory concentration (IC50) worked out at 2.01 nM.

On to `CN1[C@@H]2COC[C@H]1C[C@@H](NC(=O)c1cn(-c3ccccn3)c3ccccc13)C2` [Compound 6, N-((1R,5S,7S)-9-methyl-d3-3-oxa-9-azabicyclo[3.3.1]nonan-7-yl)-1-(pyridin-2-yl)-1H-indole-3-carboxamide, 2,2,2-trifluoroacetate], for which the half-maximal inhibitory concentration (IC50) was determined as 1.1 nM.

Consider `CN1[C@@H]2COC[C@H]1C[C@@H](NC(=O)c1cn(-c3ccc[n+]([O-])c3)c3ccccc13)C2` [Compound 32, 3-(3-(((1R,5S,7S)-9-methyl-3-oxa-9-azabicyclo[3.3.1]nonan-7-yl)carbamoyl)-1H-indol-1-yl)pyridine 1-oxide], for which the half-maximal inhibitory concentration (IC50) came out at 1.36 nM.

Take `CN1[C@@H]2COC[C@H]1C[C@@H](OC(=O)c1cn(-c3cn[nH]c3)c3ccccc13)C2` [Compound 29, (1R,5S,7S)-9-methyl-3-oxa-9-azabicyclo [3.3.1]nonan-7-yl 1-(1H-pyrazol-4-yl)-1H-indole-3-carboxylate]: the IC50 was found to be 0.462 nM.

As for `CN1[C@@H]2COC[C@H]1C[C@@H](OC(=O)c1cn(-c3cnn(C)c3)c3ccccc13)C2` [Compound 26, (1R,5S,7S)-9-methyl-3-oxa-9-azabicyclo[3.3.1]nonan-7-yl 1-(1-methyl-1H-pyrazol-4-yl)-1H-indole-3-carboxylate], the IC50 worked out at 1.2 nM.

Usually IC50 stands for the concentration at which inhibition is half-maximal.
